Laboratory results reported in patent US20100041103A1, “COMPOSITION AND METHOD FOR ENHANCING CELL GROWTH AND CELL FUSION” (DO-COOP TECHNOLOGIES LTD., priority 2007, published 2010).
Counter-ions that a name gives are not always drawn. Ends that are not written are not given here.

Experiments:
[1] = Solubilization of peptides in Neowater (Example 11); assay type: physicochemical; details: at 0.5 mM
Excerpt: Spectrophotometric measurements were taken.

[2] = Solubilization of taxol in DMSO or Neowater with 17% EtOH (Example 15); assay type: physicochemical; details: 0.5 mM; Neowater with 17% EtOH
Experimental: Solubilization: 0.5 mM Taxol solution was prepared (0.0017 gr in 4 ml) in either DMSO or Neowater™ with 17% EtOH. Absorbance was detected with a spectrophotometer.

293T cells = assay: Cell viability assay, trypan blue count after taxol; assay type: cell-based; details: taxol dissolved in Neowater, 1.666 μM, 24 hour treatment
Experimental: Cell viability assay: 150,000 293T cells were seeded in a 6 well plate with 3 ml of DMEM medium. Each treatment was grown in DMEM medium based on RO or Neowater™. […] The cells were harvested following a 24 hour treatment with taxol and counted using trypan blue solution to detect dead cells.

[3] = Taxol in Neowater by slow solvent exchange, spectrophotometry and HPLC after storage (Example 18); assay type: physicochemical; details: taxol dispersed in Neowater, 6 month storage at −20° C., HPLC
Experimental: Solubilization: 0.5 mM Taxol solution was prepared (0.0017 gr in 4 ml). Taxol was dissolved in ethanol and exchanged to Neowater™ using an RT slow solvent exchange procedure which extended for 20 days. […] The solution was sterilized using a 0.2 μm filter. Taxol was separately prepared in DMSO (0.5 mM). Both solutions were kept at −20° C. Absorbance was detected with a spectrophotometer.

[4] = Dissolving CD-Dau, Daunorubicine and t-boc (Example 9); assay type: physicochemical
Experimental: 5 different glass vials were prepared: • 1. 5 mg CD-Dau+1.2 ml Neowater™. • 2. 1.8 mg CD-Dau+600 μl acetone. • 3. 1.8 mg CD-Dau+150 μl acetone+450 μl Neowater™ (25% acetone). • 4. 1.8 mg CD-Dau+600 μl 10% *PEG (Polyethylene Glycol). • 5. 1.8 mg CD-Dau+600 μl acetone+600 μl Neowater™.
The samples were vortexed and spectrophotometer measurements were performed on vials #1, 4 and 5
The vials were left opened in order to evaporate the acetone (vials #2, 3, and 5).
2 mg Daunorubicine+1 ml Neowater™ was prepared in one vial and 2 mg of Daunorubicine+1 ml RO was prepared in a second vial.
1.14 ml of EtOH was added to one glass vial containing 18.5 mg of t-boc (an oily material). This was then divided into two vials and 1.74 ml Neowater™ or RO water was added to the vials such that the solution comprised 25% EtOH. Following spectrophotometer measurements, the solvent was evaporated from the solution and Neowater™ was added to both vials to a final volume of 2.31 ml in each vial. The solutions in the two vials were merged to one clean vial and packaged for shipment under vacuum conditions.

[5] = cited from earlier work
[6] = Dissolving retinol in Neowater, absorbance and filtration (Example 12); assay type: physicochemical
Experimental: Retinol (vitamin A) was purchased from Sigma (Fluka, 99% HPLC). Retinol was solubilized in Neowater™ under the following conditions.
1% retinol (0.01 gr in 1 ml) in EtOH and Neowater™
0.5% retinol (0.005 gr in 1 ml) in EtOH and Neowater™
0.5% retinol (0.125 gr in 25 ml) in EtOH and Neowater™.
0.25% retinol (0.0625 gr in 25 ml) in EtOH and Neowater™. Final EtOH concentration: 1.5%
Absorbance spectrum of retinol in EtOM: Retinol solutions were made in absolute EtOH, with different retinol concentrations, in order to create a calibration graph; absorbance spectrum was detected in a spectrophotometer.
2 solutions with 0.25% and 0.5% retinol in Neowater with unknown concentration of EtOH were detected in a spectrophotometer. Actual concentration of retinol is also unknown since some oil drops are not dissolved in the water.
Filtration: 2 solutions of 0.25% retinol in Neowater™ were prepared, with a final EtOH concentration of 1.5%.The solutions were filtrated in […] filter.

PFPSYKLRPG-NH2
dissolving in Neowater [1]: dissolved

CC(=O)O[C@H]1C(=O)[C@@]2(C)[C@H]([C@H](OC(=O)c3ccccc3)[C@]3(O)C[C@H](OC(=O)[C@H](O)[C@@H](NC(=O)c4ccccc4)c4ccccc4)C(C)=C1C3(C)C)[C@]1(OC(C)=O)CO[C@@H]1C[C@@H]2O [Taxol, Paclitaxel]
dissolving in DMSO and Neowater [2]: dissolved both in DMSO and Neowater™
cytotoxic effect (293T cells): comprised a cytotoxic effect
structural changes of the formulation on storage [3]: no structural changes

Daidzein—daunomycin conjugate [CD-Dau]
dissolving, Vial #3 (25% acetone) ([4]; 1.8 mg + 150 μl acetone + 450 μl Neowater): didn't dissolve very well
dissolving, Vial #4 (10% PEG+Neowater) ([4]; 1.8 mg + 600 μl 10% PEG): dissolved better than the CD-Dau in vial #1
dissolving, Vial #2 (100% acetone) ([4]; 1.8 mg + 600 μl acetone): suspended inside the acetone
dissolving, Vial #5 (acetone exchanged for Neowater) ([4]; 1.8 mg + 600 μl acetone + 600 μl Neowater, as the acetone evaporated): partially sediment to the bottom of the vial
dissolving, Vial #1 (100% Neowater) ([4]; 5 mg + 1.2 ml Neowater): sedimented after a few hours
solubility in water (known) [5]: known not to dissolve in water

CC1=C(/C=C/C(C)=C/C=C/C(C)=C/CO)C(C)(C)CCC1 [Retinol]
retinol in the solutions following filtration ([6]; 0.25% retinol in Neowater, 1.5% EtOH, filtered (0.44 and 0.2 filter)): less than 0.03125%
retinol concentration in EtOH with similar absorbance pattern ([6]; nominal 0.25% retinol in Neowater): ~0.03125%
retinol concentration in EtOH with similar absorbance pattern ([6]; nominal 0.5% retinol in Neowater): ~0.125%

COc1cccc2c1C(=O)c1c(O)c3c(c(O)c1C2=O)C[C@@](O)(C(C)=O)C[C@@H]3O[C@H]1C[C@H](N)[C@H](O)[C@H](C)O1 [Daunorubicine, Cerubidine hydrochloride]
dissolving in Neowater and RO ([4]; 2 mg in 1 ml): dissolves without difficulty
solubility in water (known) [5]: known not to dissolve in water
